From patent US11813304B2, “Compounds and methods for inhibiting phosphate transport” (Ardelyx, Inc., priority 2013, dated 2023)

Test system: HEK-293 cells
Assay: Sodium-dependent 33P phosphate uptake in HEK-293 cells (mock, rat or human NaP2b transfected)
Type: cell-based
Conditions: 5 μM EIPA; cells not pretreated to lower their intracellular pH; 23 min at room temperature
Protocol: Experiments were performed to test the relationship between alterations in intracellular pH and the uptake of phosphate ions (Pi) in human embryonic kidney cells (HEK-293 cells).
HEK-293 cells were seeded into 96-well plates at 25,000 cells/well and cultured overnight. Cells were then transfected with either rat or human NaP2b cDNA, or were mock transfected (no DNA) using Lipofectamine 2000 (Invitrogen). Cells were allowed to approach confluence during a second overnight incubation.
An ammonium pulse procedure was used to reduce the intracellular pH from ˜7.4 to ˜6.8. Medium was aspirated from the wells, cells were washed twice with NaCl-HEPES buffer (100 mM NaCl, 50 mM HEPES, 10 mM glucose, 5 mM KCl, 2 mM CaCl2, 1 mM MgCl2, pH 7.4), then incubated for 30 min at room temperature with NH4Cl-HEPES buffer (20 mM NH4Cl, 80 mM NaCl, 50 mM HEPES, 5 mM KCl, 2 mM CaCl2, 1 mM MgCl2, pH 7.4) containing 5 μM BCECF-AM. […] The reduction in intracellular pH to approximately pH 6.8 was verified by monitoring the pH sensitive changes in BCECF fluorescence (λex 505 nm, λem 538 nm) normalized to the pH insensitive BCECF fluorescence (λex 439 nm, λem 538 nm). […]
Uptake of ^33P was measured in the presence and absence of 5 μM EIPA, a specific inhibitor of NHE1. […] Cells were lysed by addition of 20 μL 0.1% Tween 80 followed by 100 μL scintillation fluid, and counted using a TopCount (Perkin Elmer).

## CCN(c1nc(N)c(C(=O)NC(=N)N)nc1Cl)C(C)C [EIPA]
  Pi uptake (33P): small yet significant decrease
